From patent US10017520B2, “Myc modulators and uses thereof” (Massachusetts Institute of Technology, priority 2014, dated 2018)
Values after ≈ are worked out from the molar mass of the structure shown. Read-outs that look alike come from different tables or passages of the source.

Tests used:
[1] = Aqueous solubility at 37° C.; assay type: physicochemical
[2] = Intrinsic clearance (liver microsomes, human), half-life; assay type: in vitro ADME
c-Myc [3] = assay: c-Myc reporter gene assay (Qiagen) in HEK293T cells; assay type: cell-based; details: Homo sapiens, HEK-293T, 16 h, treatment 16 hours, Firefly/Renilla ratio
Procedure: Compound 1's activity against Myc was measured as a Firefly/Renilla ratio, using the Myc reporter assay (Qiagen) in HEK293T cells after treatment with compound 1 for 16 hours. Results are expressed as a mean+/−SD (n=3). SD: standard deviation.
Select compounds described herein that were SMM assay positives were evaluated in several versions of a c-Myc reporter gene assay, including a commercial assay from Qiagen. The compounds' activities against c-Myc were measured as a Firefly/Renilla ratio, using the Myc reporter assay (Qiagen) in HEK293T cells after treatment with the compounds for 16 hours.

Namalwa cells = assay: Cell viability, CELL TITER GLO assay (Promega), Namalwa cells; assay type: cell-based
Procedure: (§1) FIGS. 2A to 2E show exemplary results of cell viability assay of compound 1. […] Results were expressed as a mean+/−SEM (n=3). RLU: Relative Luminescence Units.
(§2) The effect of compound 1 on cell viability in several cancer cell lines were determined. The cancer cell lines employed in the assay included those corresponding to hematopoietic and solid tumors. Exemplary results are shown in FIGS. 2A to 2E, where viability was assessed by CELL TITER GLO assay (Promega). Compound 1 was also submitted in a blinded fashion to the National Cancer Institute's CTD cancer cell line profiling pipeline, which enabled sensitivity profiling in about 800 cancer cell lines with annotation of specific genomic lesions that impart on human cancers (FIGS. 3A to 3B). […] The effects of other compounds described herein on cell viability in several cancer cell lines were also determined, and exemplary results are shown in Table 2, where viability was assessed by CELL TITER GLO assay (Promega).

NCIH1975 cells = assay: Cell viability, CELL TITER GLO assay (Promega), NCIH1975 cells; assay type: cell-based; details: Homo sapiens, NCI-H1975
Procedure: as §1, §2

Eu-Myc Arf −/− cells = assay: Cell viability, CELL TITER GLO assay (Promega), Eu-Myc Arf −/− cells; assay type: cell-based
Procedure: as §2

c-Myc [4] = assay: Affinity-based pull down of c-Myc from nuclear lysate with compound-loaded beads, Western blot; assay type: binding
Procedure: Compound 19 beads (Figure SA) and compound 55 beads (FIG. 5B) were used. Results are expressed as a mean+/−SEM (n=3). Compound 55 beads were formed by a method analogous to the method shown in FIG. 4, where beads were linked to the —NH2 moiety of compound 55 by forming a urea moiety.
In order to explore the mechanism of action of compound 1, preliminary target identification experiments involving affinity-based pull downs were carried out. […] The structure of compound 19 allowed for linking compound 1 to beads (AFFI-GEL 102, Bio-Rad) (FIG. 4).
The linkage site to the bead via the nitrogen atom of the benzimidazolyl moiety was the original site of attachment to the small-molecule microarray and represented the orientation in the original screen.

cancer cell lines = assay: Cell viability in cancer cell lines (CELL TITER GLO; CTD cancer cell line profiling); assay type: cell-based
Procedure: as §1
FIGS. 3A to 3B show CTD^2 viability data profile of cancer cell lines treated with compound 1. FIG. 3A: dose response curves of 789 cell lines treated with compound 1 for 72 hours. FIG. 3B: relative percent composition of cell lineages and enrichment analysis after treatment with compound 1.
as §2

| solubility ([1]; aqueous buffer, PBS, pH 7.4, 37° C., read-out: Solubility at 37° C., aqueous solubility (PBS, pH 7.4)) [µM] | solubility ([1]; fassgf or other biorelevant, simulated intestinal fluid, 37° C., read-out: Solubility at 37° C., aqueous solubility (simulated intestinal fluid)) [µM] | solubility ([1]; simulated gastric fluid, 37° C., read-out: Solubility at 37° C., aqueous solubility (simulated gastric fluid)) [µM] | Half-life, intrinsic clearance (liver microsomes, human) [2] [min] | IC50 (c-Myc [3]) [nM] | Structure (SMILES) | IC50 (Namalwa cells) [µM] | IC50 (NCIH1975 cells) [µM] | IC50 (Eu-Myc Arf −/− cells) [µM] | c-Myc levels pulled down with free compound as soluble competitor (c-Myc [4]; beads linked via nitrogen atom of the benzimidazolyl moiety (compound 55 beads)) | c-Myc pulled down with free compound as soluble competitor (c-Myc [4]; compound 19 beads, nuclear lysate, 5 μM soluble competitor) | effect on cell viability in 5 cancer cell lines (cancer cell lines; 3 days, NCIH1975, SNUC5, Namalwa, KLP1, Hela, CELL TITER GLO) | effect on cell viability in a variety of cancer cell lines (cancer cell lines; several cancer cell lines and CTD profiling of about 800 cancer cell lines, 72 hours) |
| --- | --- | --- | --- | --- | --- | --- | --- | --- | --- | --- | --- | --- |
| < 1 | 80.2 (≈ 30.9 µg/mL) | 62.7 (≈ 24.2 µg/mL) | 22 | 670 | CC(C)N1C(=O)S/C(=C\c2ccc(Sc3nc4ccccc4[nH]3)o2)C1=O [Compound 1, (Z)-5-((5-((1H-benzo[d]imidazol-2-yl)thio)furan-2-yl)methylene)-3-isopropylthiazolidine-2,4-dione] | 21.1 | 24.9 | 10.2 | decreased levels of c-Myc | less c-Myc pulled down | affected cell viability | demonstrated an effect in cell viability |
| – | – | – | – | 7500 | O=C1NC(=O)/C(=C/c2ccc(Sc3nc4ccccc4[nH]3)o2)N1 [Compound 2, (Z)-5-((5-((1H-benzo[d]imidazol-2-yl)thio)furan-2-yl)methylene)imidazolidine-2,4-dione] | > 50 | > 50 | > 50 | – | – | – | – |
| – | – | – | – | 5720 | CC(C)N1C(=O)S/C(=C\c2ccc(Sc3nc4ccccc4s3)o2)C1=O [Compound 3, (Z)-5-((5-(benzo[d]thiazol-2-ylthio)furan-2-yl)methylene)-3-isopropylthiazolidine-2,4-dione] | 31.1 | > 50 | > 50 | – | – | – | – |
| – | – | – | – | 790 | CC(C)N1C(=O)S/C(=C\c2ccc(Sc3nc4ccc(Cl)cc4[nH]3)o2)C1=O [Compound 4, (Z)-5-((5-((6-chloro-1H-benzo[d]imidazol-2-yl)thio)furan-2-yl)methylene)-3-isopropylthiazolidine-2,4-dione] | 12.4 | 17.3 | 11 | – | – | – | – |
| – | – | – | – | 1190 | COc1ccc2nc(Sc3ccc(/C=C4\SC(=O)N(C(C)C)C4=O)o3)[nH]c2c1 [Compound 5, (Z)-3-isopropyl-5-((5-((6-methoxy-1H-benzo[d]imidazol-2-yl)thio)furan-2-yl)methylene)thiazolidine-2,4-dione] | 42.1 | 34.5 | > 50 | – | – | – | – |
| – | – | – | – | 9390 | CC(C)N1C(=O)S/C(=C\c2ccc(Sc3nc4ccccc4o3)o2)C1=O [Compound 6, (Z)-5-((5-(benzo[d]oxazol-2-ylthio)furan-2-yl)methylene)-3-isopropylthiazolidine-2,4-dione] | 37.2 | > 50 | > 50 | – | – | – | – |
| – | – | – | – | 830 | CC(C)N1C(=O)N/C(=C\c2ccc(Sc3nc4ccccc4[nH]3)o2)C1=O [Compound 8, (Z)-5-((5-((1H-benzo[d]imidazol-2-yl)thio)furan-2-yl)methylene)-3-isopropylimidazolidine-2,4-dione] | > 50 | > 50 | 11.8 | – | – | – | – |
| – | – | – | – | 9020 | O=C1C/C(=C\c2ccc(Sc3nc4ccccc4[nH]3)o2)C(=O)N1 [Compound 9, (E)-3-((5-((1H-benzo[d]imidazol-2-yl)thio)furan-2-yl)methylene)pyrrolidine-2,5-dione] | > 50 | > 50 | > 50 | – | – | – | – |
| – | – | – | – | 5600 | CC(C)N1C(=O)S/C(=C\c2ccc(Sc3nc4cccnc4[nH]3)o2)C1=O [Compound 10, (Z)-5-((5-((3H-imidazo[4,5-b]pyridin-2-yl)thio)furan-2-yl)methylene)-3-isopropylthiazolidine-2,4-dione] | > 50 | > 50 | 33.1 | – | – | – | – |
| – | – | – | – | 1050 | CC(C)N1C(=O)N/C(=C\c2ccc(Sc3nc4ccc(Cl)cc4[nH]3)o2)C1=O [Compound 22, (Z)-5-((5-((6-chloro-1H-benzo[d]imidazol-2-yl)thio)furan-2-yl)methylene)-3-isopropylimidazolidine-2,4-dione] | 16.5 | 45.3 | 6.09 | – | – | – | – |
| – | – | – | – | 1500 | Cc1cccc2nc(Sc3ccc(/C=C4\SC(=O)N(C(C)C)C4=O)o3)[nH]c12 [Compound 23, (Z)-3-isopropyl-5-((5-((7-methyl-1H-benzo[d]imidazol-2-yl)thio)furan-2-yl)methylene)thiazolidine-2,4-dione] | 33.9 | 28.2 | 10.5 | – | – | – | – |
| – | – | – | – | 640 | CC(C)N1C(=O)S/C(=C\c2ccc(Sc3nc4ccc(C(F)(F)F)cc4[nH]3)o2)C1=O [Compound 24, (Z)-3-isopropyl-5-((5-((6-(trifluoromethyl)-1H-benzo[d]imidazol-2-yl)thio)furan-2-yl)methylene)thiazolidine-2,4-dione] | 7.94 | 12.5 | 11.2 | – | – | – | – |
| – | – | – | – | 630 | CC(C)N1C(=O)S/C(=C\c2ccc(Sc3nc4cc(Cl)c(Cl)cc4[nH]3)o2)C1=O [Compound 25, (Z)-5-((5-((5,6-dichloro-1H-benzo[d]imidazol-2-yl)thio)furan-2-yl)methylene)-3-isopropylthiazolidine-2,4-dione] | 3.95 | 7.88 | 5.51 | – | – | – | – |
| – | – | – | – | 33600 | O=C(O)CN1C(=O)S/C(=C\c2ccc(Sc3nc4ccccc4[nH]3)o2)C1=O [Compound 26] | > 50 | > 50 | > 50 | – | – | – | – |
| – | – | – | – | 2280 | O=C(CCCC[C@H]1SC[C@H]2NC(=O)N[C@H]21)NCCCN1C(=O)S/C(=C\c2ccc(Sc3nc4ccccc4[nH]3)o2)C1=O [Compound 27, N-(3-((Z)-5-((5-((1H-benzo[d]imidazol-2-yl)thio)furan-2-yl)methylene)-2,4-dioxothiazolidin-3-yl)propyl)-5-((3aR,4R,6aS)-2-oxohexahydro-1H-thieno[3,4-d]imidazol-4-yl)pentanamide] | 12.2 | > 50 | 26 | – | – | – | – |
| – | – | – | – | 980 | CC(C)N1C(=O)S/C(=C\c2ccc(Sc3nc4cccc(Cl)c4[nH]3)o2)C1=O [Compound 28, (Z)-5-(5-(((7-chloro-H-benzo[d]imidazol-2-yl)thio)furan-2-yl)methylene)-3-isopropylthiazolidine-2,4-dione] | 9.41 | 15.6 | 5.36 | – | – | – | – |
| – | – | – | – | 640 | CC(C)c1ccc2nc(Sc3ccc(/C=C4\SC(=O)N(C(C)C)C4=O)o3)[nH]c2c1 [Compound 29, (Z)-3-isopropyl-5-((5-((6-isopropyl-1H-benzo[d]imidazol-2-yl)thio)furan-2-yl)methylene)thiazolidine-2,4-dione] | 15.3 | 19.9 | 13.1 | – | – | – | – |
| – | – | – | – | 1630 | COc1cccc2nc(Sc3ccc(/C=C4\SC(=O)N(C(C)C)C4=O)o3)[nH]c12 [Compound 30, (Z)-3-isopropyl-5-((5-((7-methoxy-1H-benzo[d]imidazol-2-yl)thio)furan-2-yl)methylene)thiazolidine-2,4-dione] | 72 | 56.3 | 11.1 | – | – | – | – |
| – | – | – | – | > 40000 | OCc1ccc(Sc2nc3ccccc3[nH]2)o1 [Compound 40, (5-((1H-benzo[d]imidazol-2-yl)thio)furan-2-yl)methanol] | > 50 | > 50 | 14.1 | – | – | – | – |
